Assay results published in publication PMC3246188, “Inhibition of endothelial- and neuronal-type, but not inducible-type, nitric oxide synthase by the oxidized cholesterol metabolite secosterol aldehyde: Implications for vascular and neurodegenerative diseases” (Journal of Clinical Biochemistry and Nutrition, 2011).
Where two headings read alike, the source gives them in different places.

How the values were obtained:
[1] = target: T1, nNOS (Rattus norvegicus, UniProt P29476); assay: NOS activity assay, conversion of L-[14C(U)]-arginine to L-[14C(U)]-citrulline, recombinant nNOS; assay type: biochemical; conditions: for Effect on nNOS activity: up to the highest concentration (100 µM); for Pattern of inhibition of nNOS activity: Lineweaver-Burke plot
T1 construct: purchased Cayman Chem
Excerpt: (§1) Secosterol-A and -B were synthesized according to Wentworth et al.([1]) L-Arginine, nicotinamide adenine dinucleotide phosphate reduced form (NADPH), flavin adenine dinucleotide (FAD), flavin mononucleotide (FMN), (6R)-5,6,7,8-tetrahydrobiopterin (BH4), recombinant eNOS (from bovine), iNOS (from mouse macrophages), and Dowex® AG50W-X8 cation-exchange resin (mesh size, 100–200) were all purchased from Sigma Chem. (St. Louis, MO). Ultima Gold XR scintillation liquid was from PerkinElmer (Shelton, CA). Recombinant nNOS (from rat) was obtained from Cayman Chem. All other chemicals were obtained from Wako Pure Chem. Ind., Osaka, Japan.
(§2) The NOS activities were determined by monitoring the conversion of L-[^14C(U)]-arginine (Moravek, Brea, CA) to L-[^14C(U)]-citrulline as previously described.([28]) Recombinant enzymes of three isoforms of NOS (specific activity: eNOS 0.03, nNOS 2.9, iNOS 0.62 units/mg protein) (10 µl) were added to a reaction mixture (final volume of 100 µl) consisting of 50 mM HEPES buffer (pH 7.4), 1 mM NADPH, 4 µM FAD, 4 µM FMN, 10 µM BH4, 1 mg/L (60 µM) calmodulin (CaM), 2.5 mM CaCl2, 50 µM L-arginine, 0.5 µCi/ml of L-[^14C(U)]-arginine (specific activity: 8.14–11.1 GBq/mmol) and varying concentrations of the test compound. After incubation for 30 min at 37°C, the reactions were terminated by the addition of 0.5 ml of 20 mM HEPES (pH 5.5) containing 2 mM EDTA and 2 mM EGTA. Samples were passed through a 1 ml column of Dowex AG50W-X8 (Na^+-form) to remove unconverted L-[^14C(U)]-arginine. L-[^14C(U)]-Citrulline was eluted twice with 1 ml of distilled water, and the eluted fractions mixed with 10 ml of cocktail (Ultima Gold XR) were quantified using a liquid scintillation counter. A reaction mixture containing L-[^14C(U)]-arginine without the enzyme was incubated as a control to determine background counts. The effects of oxidized cholesterol metabolites on the NOSs activities were examined in the presence and absence of the test compounds at various concentrations, which were prepared in 5% ethanol and a 10 µl aliquot was added into the reaction mixture.
(§3) Initial rates of citrulline formation were obtained by linear leastsquares data fitting of actual experimental data. Apparent Km and Vmax values at each inhibitor concentration were obtained from nonlinear regression fitting using the Michaelis-Menten equation. Ki and Kiʹ were obtained from the X-axis intercepts of plots of measured Km/Vmax and 1/Vmax vs inhibitor concentration, respectively.

[2] = target: T2, iNOS (Mus musculus, UniProt P29477); assay: NOS activity assay, conversion of L-[14C(U)]-arginine to L-[14C(U)]-citrulline, recombinant iNOS; assay type: biochemical; conditions: tested 1–100 µM, highest concentration 100 µM
T2 construct: purchased Sigma Chem. (St. Louis, MO)
Excerpt: as §1, §2

[3] = target: T3, eNOS (Bos taurus, UniProt P29473); assay: NOS activity assay, conversion of L-[14C(U)]-arginine to L-[14C(U)]-citrulline, recombinant eNOS; assay type: biochemical, bovine; conditions: for Effect on eNOS activity: up to the highest concentration (100 µM)
T3 construct: purchased Sigma Chem. (St. Louis, MO)
T3 sequence (P29473 2-1205 limits assumed): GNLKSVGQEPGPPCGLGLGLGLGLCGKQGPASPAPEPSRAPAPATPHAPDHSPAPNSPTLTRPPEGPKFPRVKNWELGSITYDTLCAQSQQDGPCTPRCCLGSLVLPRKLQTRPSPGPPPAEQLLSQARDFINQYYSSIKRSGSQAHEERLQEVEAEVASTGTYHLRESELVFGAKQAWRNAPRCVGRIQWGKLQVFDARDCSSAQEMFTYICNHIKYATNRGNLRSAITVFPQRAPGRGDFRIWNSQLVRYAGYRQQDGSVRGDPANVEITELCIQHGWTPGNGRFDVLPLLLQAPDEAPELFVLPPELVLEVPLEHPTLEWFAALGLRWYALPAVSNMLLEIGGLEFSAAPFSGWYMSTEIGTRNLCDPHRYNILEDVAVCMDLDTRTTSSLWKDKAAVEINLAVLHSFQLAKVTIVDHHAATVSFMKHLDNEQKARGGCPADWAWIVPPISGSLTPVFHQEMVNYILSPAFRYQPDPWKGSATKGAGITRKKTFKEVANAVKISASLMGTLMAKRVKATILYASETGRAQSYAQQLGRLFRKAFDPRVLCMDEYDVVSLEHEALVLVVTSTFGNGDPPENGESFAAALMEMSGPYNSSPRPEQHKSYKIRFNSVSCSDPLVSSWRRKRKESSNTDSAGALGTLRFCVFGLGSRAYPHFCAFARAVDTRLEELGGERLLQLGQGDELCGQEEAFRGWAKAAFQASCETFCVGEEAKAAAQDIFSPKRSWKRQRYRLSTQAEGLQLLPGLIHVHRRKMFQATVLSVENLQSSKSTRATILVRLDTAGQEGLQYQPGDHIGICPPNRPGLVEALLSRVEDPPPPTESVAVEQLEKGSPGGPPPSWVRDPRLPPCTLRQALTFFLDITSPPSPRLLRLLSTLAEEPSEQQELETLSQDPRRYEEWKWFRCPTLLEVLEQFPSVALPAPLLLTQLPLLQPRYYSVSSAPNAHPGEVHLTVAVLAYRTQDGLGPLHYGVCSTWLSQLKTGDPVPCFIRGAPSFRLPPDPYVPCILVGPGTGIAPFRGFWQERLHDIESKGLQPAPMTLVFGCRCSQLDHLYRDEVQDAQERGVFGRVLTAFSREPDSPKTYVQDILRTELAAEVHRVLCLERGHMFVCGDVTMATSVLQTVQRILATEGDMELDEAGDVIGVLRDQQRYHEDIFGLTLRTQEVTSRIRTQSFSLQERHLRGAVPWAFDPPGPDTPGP
Excerpt: as §1, §2, §3

[4] = target: bovine serum albumin (Bos taurus, UniProt P02769); assay: Reaction with proteins to form the adduct (preliminary, unpublished data)
[5] = varying L-arginine, read-out: Ki(app) for the catalytic site

T1 sequence (P29476 whole entry): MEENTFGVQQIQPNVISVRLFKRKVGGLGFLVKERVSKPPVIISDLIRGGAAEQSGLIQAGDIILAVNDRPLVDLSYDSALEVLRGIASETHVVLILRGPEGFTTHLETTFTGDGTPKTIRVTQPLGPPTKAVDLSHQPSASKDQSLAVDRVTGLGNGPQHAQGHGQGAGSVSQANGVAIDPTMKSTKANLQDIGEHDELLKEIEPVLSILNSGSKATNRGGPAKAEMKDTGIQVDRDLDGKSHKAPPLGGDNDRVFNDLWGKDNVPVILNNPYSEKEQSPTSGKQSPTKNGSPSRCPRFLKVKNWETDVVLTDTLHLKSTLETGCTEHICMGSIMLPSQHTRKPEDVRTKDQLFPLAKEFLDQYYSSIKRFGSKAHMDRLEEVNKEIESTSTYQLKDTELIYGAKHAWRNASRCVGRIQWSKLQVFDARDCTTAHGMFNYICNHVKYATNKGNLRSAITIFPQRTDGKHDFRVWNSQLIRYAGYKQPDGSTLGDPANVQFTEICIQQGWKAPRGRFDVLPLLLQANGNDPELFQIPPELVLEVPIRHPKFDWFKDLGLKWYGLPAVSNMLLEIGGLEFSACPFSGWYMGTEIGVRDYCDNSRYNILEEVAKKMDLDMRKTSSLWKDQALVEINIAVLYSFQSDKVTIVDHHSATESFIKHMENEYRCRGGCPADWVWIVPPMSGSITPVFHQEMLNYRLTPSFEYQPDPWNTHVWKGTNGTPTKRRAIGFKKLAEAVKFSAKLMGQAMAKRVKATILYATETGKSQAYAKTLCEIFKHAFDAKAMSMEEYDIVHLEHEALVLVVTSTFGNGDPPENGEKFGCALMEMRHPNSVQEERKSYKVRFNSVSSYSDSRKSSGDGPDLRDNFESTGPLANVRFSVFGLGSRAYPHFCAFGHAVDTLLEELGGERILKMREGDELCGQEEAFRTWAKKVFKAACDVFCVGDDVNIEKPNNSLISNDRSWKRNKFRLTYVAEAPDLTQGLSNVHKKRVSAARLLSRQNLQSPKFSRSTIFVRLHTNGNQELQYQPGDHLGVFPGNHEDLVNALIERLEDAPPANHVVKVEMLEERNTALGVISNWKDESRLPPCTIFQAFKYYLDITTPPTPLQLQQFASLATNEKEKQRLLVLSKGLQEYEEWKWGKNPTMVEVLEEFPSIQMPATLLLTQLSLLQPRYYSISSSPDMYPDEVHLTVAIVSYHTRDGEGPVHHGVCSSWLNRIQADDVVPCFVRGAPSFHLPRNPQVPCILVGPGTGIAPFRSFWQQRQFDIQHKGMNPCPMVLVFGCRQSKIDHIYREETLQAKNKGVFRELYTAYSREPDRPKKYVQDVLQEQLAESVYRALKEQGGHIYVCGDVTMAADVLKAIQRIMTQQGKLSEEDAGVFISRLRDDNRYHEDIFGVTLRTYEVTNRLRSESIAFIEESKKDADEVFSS
Sequence of bovine serum albumin (P02769 25-607): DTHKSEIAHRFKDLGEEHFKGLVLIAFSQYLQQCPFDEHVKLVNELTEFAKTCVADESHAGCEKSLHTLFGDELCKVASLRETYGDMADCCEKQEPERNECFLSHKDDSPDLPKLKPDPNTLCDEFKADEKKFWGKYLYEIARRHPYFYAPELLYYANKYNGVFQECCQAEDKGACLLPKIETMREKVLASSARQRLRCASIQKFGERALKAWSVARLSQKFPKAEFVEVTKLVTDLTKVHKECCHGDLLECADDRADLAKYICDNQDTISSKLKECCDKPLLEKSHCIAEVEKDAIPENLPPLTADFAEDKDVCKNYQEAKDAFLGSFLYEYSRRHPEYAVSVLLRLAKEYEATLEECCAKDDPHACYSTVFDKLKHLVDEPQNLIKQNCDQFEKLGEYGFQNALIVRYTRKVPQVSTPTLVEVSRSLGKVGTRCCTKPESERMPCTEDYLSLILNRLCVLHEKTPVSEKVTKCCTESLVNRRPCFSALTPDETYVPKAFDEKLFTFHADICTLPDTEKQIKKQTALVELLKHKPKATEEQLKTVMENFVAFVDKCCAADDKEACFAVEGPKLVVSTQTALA

Structure (SMILES): CC(C)CCC[C@@H](C)[C@H]1CC[C@H]2[C@@H]3C(=O)C=C4C[C@@H](O)CC[C@]4(C)[C@H]3CC[C@]12C [7-ketocholesterol, 3β-hydroxy-5-cholesten-7-one]
- Effect on nNOS activity [1]: do not affect
- Effect on iNOS activity [2]: do not affect
- Effect on eNOS activity [3]: do not affect

Structure (SMILES): C[C@H](CCCC(C)(C)O)[C@H]1CC[C@H]2[C@@H]3CC=C4C[C@@H](O)CC[C@]4(C)[C@H]3CC[C@]12C [25-hydroxycholesterol]
- Effect on nNOS activity [1]: do not affect
- Effect on iNOS activity [2]: do not affect
- Effect on eNOS activity [3]: do not affect

Structure (SMILES): CC(C)CCC[C@@H](C)[C@H]1CC[C@H]2[C@H](CC=O)[C@@H]([C@@]3(C)CC[C@H](O)CC3=O)CC[C@]12C [secosterol-A, 3β-hydroxy-5-oxo-5,6-secocholestan-6-al]
- nNOS activity, % of the activity without secosterol-A ([1]; 40 µM secosterol-A, 10 µM BH4): 23%
- nNOS activity compared to the activity without secosterol-A ([1]; 40 µM secosterol-A, 60 µM CaM): 22%
- Restoration of inhibited nNOS activity by added BH4 ([1]; 40 µM secosterol-A, 50 and 100 µM BH4): did not restore
- nNOS activity compared to the activity without secosterol-A ([1]; 40 µM secosterol-A, excess CaM 300 µM): 63%
- nNOS activity compared to the activity without secosterol-A ([1]; 40 µM secosterol-A, excess CaM 600 µM): 86%
- Vmax(app)ʹ ([1]; L-arginine as substrate, in the presence of 40 µM secosterol-A (10000 without inhibitor)): 909 µmol·L^−1·30 min^−1
- IC50 ([1]; recombinant rat nNOS, 50 µM L-arginine, 30 min at 37°C): 22 ± 1 µM
- Pattern of inhibition of nNOS activity ([1]; varying CaM): noncompetitive or a mixed-type
- Ki ([1]; varying CaM, read-out: Kiʹ for the allosteric site (CaM-dependent nNOS activity)): 30 µM
- Pattern of inhibition of nNOS activity ([1]; varying L-arginine): noncompetitive or a mixed-type
- Ki [1, 5]: 10 µM
- Ki ([1]; varying L-arginine, read-out: Ki(app)ʹ for the allosteric site): 1 µM
- Reactivity with proteins to form the adduct [4]: more easily than secosterol-B
- Effect on iNOS activity [2]: did not affect
- eNOS activity, % of the activity without secosterol-A ([3]; 100 µM secosterol-A, 10 µM BH4): 41%
- Restoration of inhibited eNOS activity by added BH4 ([3]; 100 µM secosterol-A, 50 and 100 µM BH4): did not restore
- Restoration of inhibited eNOS activity by excess CaM ([3]; 100 µM secosterol-A, CaM 60–600 µM): did not restore
- Vmax(app)ʹ ([3]; L-arginine as substrate, in the presence of 50 µM secosterol-A (1400 without inhibitor)): 480 µmol·L^−1·30 min^−1
- IC50 ([3]; recombinant bovine eNOS, 50 µM L-arginine, 30 min at 37°C): 50 ± 5 µM
- Ki [3, 5]: 50 µM

Structure (SMILES): CC(C)CCC[C@@H](C)[C@H]1CC[C@H]2[C@@H]3C[C@H]4O[C@]45C[C@@H](O)CC[C@]5(C)[C@H]3CC[C@]12C [5β,6β-epoxycholesterol]
- Effect on nNOS activity [1]: do not affect
- Effect on iNOS activity [2]: do not affect
- Effect on eNOS activity [3]: do not affect

Structure (SMILES): CC(C)CCC[C@@H](C)[C@H]1CC[C@H]2[C@@H]3CC=C4C[C@@H](O)CC[C@]4(C)[C@H]3CC[C@]12C [cholesterol]
- Effect on nNOS activity [1]: do not affect
- Effect on nNOS activity ([1]; listed as Cholesterol): no inhibitory effects
- Effect on iNOS activity [2]: do not affect
- Effect on iNOS activity ([2]; listed as Cholesterol): no inhibitory effects
- Effect on eNOS activity [3]: do not affect
- Effect on eNOS activity ([3]; listed as Cholesterol): no inhibitory effects

Structure (SMILES): CC(C)CCC[C@@H](C)[C@H]1CC[C@H]2[C@@H]3[C@@H](C=O)[C@]4(O)C[C@@H](O)CC[C@]4(C)[C@H]3CC[C@]12C [secosterol-B, 3β-hydroxy-5β-hydroxy-B-norcholestane-6β-carboxaldehyde]
- Effect on nNOS activity [1]: do not affect
- Effect on iNOS activity [2]: do not affect
- Effect on eNOS activity [3]: do not affect
